The target of test [1] is GDP-bound KRAS protein (aa 1-169), containing both G12C and C118A amino acid substitutions (Homo sapiens (Human), UniProt P01116, C118A/G12C). The test is described as follows: Coupled nucleotide exchange assay (SOS-mediated nucleotide exchange, AlphaScreen). Type of test: biochemical. The following applies: 5 min compound pre-incubation; for IC50: read-out: Coupled exchange IC50 (5 min; μM). A general note: Bead proximity is the source of the signal in Alpha formats.

Test [2] concerns Phosphorylation of ERK1/2 in MIA PaCa-2 cells. The test is described as follows: Phospho-ERK1/2 MSD assay in MIA PaCa-2 cells. Type of test: cell-based. The following applies: read-out: p-ERK IC50 (2 h, MiaPaCa-2; μM). The method in brief:
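Phospho-ERK1/2 measured by MSD electrochemiluminescence kit in RIPA lysates of MIA PaCa-2 cells. Cells were treated with compound titrations for 2 or 4 h at 37 °C, 5% CO2, followed by a 10 min pulse of 10 ng/mL EGF.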

Test [3] relates to Phosphorylation of ERK1/2 in A549 cells. Put plainly: Phospho-ERK1/2 MSD assay in A549 cells. The class given is cell-based. Particulars: read-out: p-ERK IC50 (2 h, A549; μM). The method in brief: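 Dose-response treatment lasted 2 or 4 h in RPMI 1640/10% FBS at 37 °C. EGF-stimulated (10 ng/mL, 10 min) ERK1/2 phosphorylation was then quantified in cell lysates with a Meso Scale Discovery phospho-ERK1/2 assay.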

Setting [4] is: Homo sapiens, MIA PaCa-2, 2 h, 2 h compound treatment, MIA PaCa-2 cells, EGF stimulated.
The mark [5] stands for this setting: Homo sapiens, A549, 2 h, 2 h compound treatment, A549 cells, EGF stimulated.

Read-outs that look alike come from different tables or passages of the source. Some results are limits rather than exact numbers.

Chain of GDP-bound KRAS protein (aa 1-169), containing both G12C and C118A amino acid substitutions (P01116 other isoform, or with tags, fused parts or gaps G12C/C118A): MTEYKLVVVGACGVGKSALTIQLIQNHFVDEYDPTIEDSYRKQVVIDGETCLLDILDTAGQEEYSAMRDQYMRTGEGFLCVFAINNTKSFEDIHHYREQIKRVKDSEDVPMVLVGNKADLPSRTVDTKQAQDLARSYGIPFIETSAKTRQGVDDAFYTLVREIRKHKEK

Turning to `C=CC(=O)N1C[C@H](C)N(c2nc(=O)n(-c3c(C)ncnc3C(C)C)c3nc(-c4ccccc4F)c(Cl)cc23)C[C@H]1C` [Example 194, 4-((2S,5R)-4-Acryloyl-2,5-dimethylpiperazin-1-yl)-6-chloro-7-(2-fluorophenyl)-1-(4-isopropyl-6-methylpyrimidin-5-yl)pyrido[2,3-d]pyrimidin-2(1H)-one], the IC50 – broadly, the concentration needed to halve the response being measured – was 0.186 µM in test [1], 0.048 µM in test [2] (setting [4]) and over 7.5 µM in test [3] (setting [5]).

Turning to `C=CC(=O)N1C[C@H](C)N(c2nc(=O)n(-c3c(C(C)C)cnnc3C(C)C)c3nc(-c4ccccc4F)c(Cl)cc23)C[C@H]1C` [Example 205, 4-((2S,5R)-4-Acryloyl-2,5-dimethylpiperazin-1-yl)-6-chloro-1-(3,5-diisopropylpyridazin-4-yl)-7-(2-fluorophenyl)pyrido[2,3-d]pyrimidin-2(1H)-one], the IC50 is 0.08 µM in test [1], 0.095 µM in test [2] (setting [4]) and over 7.5 µM in test [3] (setting [5]).

Consider `C=CC(=O)N1[C@H](C)CN(c2nc(=O)n(-c3c(C(C)C)cnnc3C(C)C)c3nc(-c4ccccc4F)c(Cl)cc23)C[C@@H]1C` [Example 206-2, 4-(cis-4-Acryloyl-3,5-dimethylpiperazin-1-yl)-6-chloro-1-(3,5-diisopropylpyridazin-4-yl)-7-(2-fluorophenyl)pyrido[2,3-d]pyrimidin-2(1H)-one], for which the “Coupled exchange IC50 (5 min; μM)” value in test [1] is 0.098 µM. For the same molecule, the IC50 in test [2] (2 h compound treatment, MIA PaCa-2 cells, EGF stimulated) was 0.139 µM; in test [3] (2 h compound treatment, A549 cells, EGF stimulated) it was over 7.5 µM.

As for `C=CC(=O)N1C[C@H](C)N(c2nc(=O)n(-c3ccc(S(C)(=O)=O)cc3C(C)C)c3nc(-c4ccccc4F)c(Cl)cc23)C[C@H]1C` [Example 208, 4-((2S,5R)-4-Acryloyl-2,5-dimethylpiperazin-1-yl)-6-chloro-7-(2-fluorophenyl)-1-(2-isopropyl-4-(methylsulfonyl)phenyl)pyrido[2,3-d]pyrimidin-2(1H)-one], in test [1], the “Coupled exchange IC50 (5 min; μM)” value was 0.231 µM. Moreover, the results for the IC50 in test [2] (setting [4]) and in test [3] (setting [5]) were 0.14 µM and over 7.5 µM, respectively.

Turning to `C=CC(=O)N1C[C@H](C)N(c2nc(=O)n(-c3c(C)ccnc3C(C)C)c3nc(-c4ccccc4S(C)(=O)=O)c(Cl)cc23)C[C@H]1C` [Example 210, 4-((2S,5R)-4-Acryloyl-2,5-dimethylpiperazin-1-yl)-6-chloro-1-(2-isopropyl-4-methylpyridin-3-yl)-7-(2-(methylsulfonyl)phenyl)pyrido[2,3-d]pyrimidin-2(1H)-one], in test [1], the “Coupled exchange IC50 (5 min; μM)” value came to 0.049 µM. For the same molecule, the 50% inhibitory concentration (IC50) was 0.039 µM in test [2] (setting [4]) and over 7.5 µM in test [3] (setting [5]).

As to `C=CC(=O)N1C[C@H](C)N(c2nc(=O)n(-c3c(C)cc([S+](C)[O-])cc3C(C)C)c3nc(-c4ccccc4C)c(Cl)cc23)C[C@H]1C` (stereo partly drawn) [Example 213, 4-((2S,5R)-4-Acryloyl-2,5-dimethylpiperazin-1-yl)-6-chloro-1-(2-isopropyl-6-methyl-4-(methylsulfinyl)phenyl)-7-(o-tolyl)pyrido[2,3-d]pyrimidin-2(1H)-one], the figures for the 50% inhibitory concentration (IC50) in test [1], in test [2] (setting [4]) and in test [3] (setting [5]) were 0.182 µM, 0.104 µM and over 7.5 µM, respectively.

In the case of `C=CC(=O)N1C[C@H](C)N(C2=NC(=O)CN(c3c(C)ccnc3C(C)C)c3nc(-c4ccccc4F)c(Cl)cc32)C[C@H]1C` [Example 218, 5-((2S,5R)-4-Acryloyl-2,5-dimethylpiperazin-1-yl)-7-chloro-8-(2-fluorophenyl)-1-(2-isopropyl-4-methylpyridin-3-yl)-1,2-dihydro-3H-pyrido[2,3-e][1,4]diazepin-3-one], the 50% inhibitory concentration (IC50) is 0.094 µM in test [1]; 0.035 µM in test [2] (Homo sapiens, MIA PaCa-2, 2 h); over 7.5 µM in test [3] (Homo sapiens, A549, 2 h).

Regarding `C=CC(=O)N1C[C@H](C)N(c2nc(=O)n(-c3c(C(C)C)nc(N)nc3C(C)C)c3nc(-c4ccccc4F)c(Cl)cc23)C[C@H]1C` [Example 229, 4-((2S,5R)-4-Acryloyl-2,5-dimethylpiperazin-1-yl)-1-(2-amino-4,6-diisopropylpyrimidin-5-yl)-6-chloro-7-(2-fluorophenyl)pyrido[2,3-d]pyrimidin-2(1H)-one], the IC50 is 0.071 µM in test [1], 0.032 µM in test [2] (setting [4]) and over 7.5 µM in test [3] (setting [5]).

The values above are taken from patent publication US11285156B2, “Substituted piperazines as KRAS G12C inhibitors” (Amgen Inc., priority 2018, dated 2022).
